IC50 data for eleven molecules are collected here from patent US20240383875A1, “Benzimidazole Pyridine Derivatives” (Hoffmann-La Roche Inc., priority 2022, published 2024).

Common to all, as to format: biochemical
One experiment has as its target SIK1 (Homo sapiens, UniProt P57059). The experiment in a line: Enzymatic activity assay SIK1, RapidFire mass spectrometry (phosphorylation of CHK-peptide). To be noted: RapidFire MS, inhibition of SIK1; read-out: SIK1 RF IC50. The method, boiled down:
(§1)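 Human SIK1/2/3, 5/0.5/1.5 nM; 12.5 mM HEPES pH 7.0, 10 mM Mg acetate, 0.005% BSA. 30 min cpd pre-inc, + CHK-peptide (10 μM soln) + ATP (100 μM soln), 45 min RT. Formic acid stop; RF-MS phospho ratio; IC50.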

Another experiment deals with SIK3 (Homo sapiens, UniProt Q9Y2K2). As to the kind of experiment: Enzymatic activity assay SIK3, RapidFire mass spectrometry (phosphorylation of CHK-peptide). To be noted: RapidFire MS, inhibition of SIK3; read-out: SIK3 RF IC50. The method, boiled down:
as §1

The next experiment has as its target SIK2 (Homo sapiens, UniProt Q9H0K1). As to the kind of experiment: Enzymatic activity assay SIK2, RapidFire mass spectrometry (phosphorylation of CHK-peptide). To be noted: RapidFire MS, inhibition of SIK2; read-out: SIK2 RF IC50. A digest of the protocol:
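Read-out is the summed phospho-species fraction of CHK-peptide by RapidFire mass spectrometry, normalized between DMSO and 1 μM YKL-05-099. The reaction used 0.5 nM SIK2, 100 μM ATP and 10 μM peptide solutions in HEPES pH 7.0/10 mM magnesium acetate for 45 min at ambient temperature.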

Sequence of SIK1 (P57059 whole entry): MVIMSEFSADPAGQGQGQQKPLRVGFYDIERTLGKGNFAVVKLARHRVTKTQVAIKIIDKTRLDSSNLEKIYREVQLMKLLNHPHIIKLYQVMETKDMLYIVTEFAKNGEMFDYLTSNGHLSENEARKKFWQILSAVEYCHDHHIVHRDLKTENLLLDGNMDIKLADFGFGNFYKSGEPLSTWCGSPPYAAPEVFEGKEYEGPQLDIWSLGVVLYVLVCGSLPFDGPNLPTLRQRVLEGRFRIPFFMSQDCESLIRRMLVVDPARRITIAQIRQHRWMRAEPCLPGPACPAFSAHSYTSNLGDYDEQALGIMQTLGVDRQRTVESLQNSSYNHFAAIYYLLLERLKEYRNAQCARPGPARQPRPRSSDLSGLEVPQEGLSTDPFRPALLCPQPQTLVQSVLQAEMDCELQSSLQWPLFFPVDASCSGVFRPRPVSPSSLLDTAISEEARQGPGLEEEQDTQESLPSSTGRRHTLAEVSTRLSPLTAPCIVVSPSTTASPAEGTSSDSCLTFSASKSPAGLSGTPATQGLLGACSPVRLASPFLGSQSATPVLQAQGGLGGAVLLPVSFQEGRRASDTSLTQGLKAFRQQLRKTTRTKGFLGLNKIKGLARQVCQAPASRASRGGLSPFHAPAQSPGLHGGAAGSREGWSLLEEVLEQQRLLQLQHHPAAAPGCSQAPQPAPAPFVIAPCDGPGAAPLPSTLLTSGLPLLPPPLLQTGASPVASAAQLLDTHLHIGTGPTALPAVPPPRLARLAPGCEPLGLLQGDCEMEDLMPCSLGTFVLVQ
Sequence of SIK2 (Q9H0K1 whole entry): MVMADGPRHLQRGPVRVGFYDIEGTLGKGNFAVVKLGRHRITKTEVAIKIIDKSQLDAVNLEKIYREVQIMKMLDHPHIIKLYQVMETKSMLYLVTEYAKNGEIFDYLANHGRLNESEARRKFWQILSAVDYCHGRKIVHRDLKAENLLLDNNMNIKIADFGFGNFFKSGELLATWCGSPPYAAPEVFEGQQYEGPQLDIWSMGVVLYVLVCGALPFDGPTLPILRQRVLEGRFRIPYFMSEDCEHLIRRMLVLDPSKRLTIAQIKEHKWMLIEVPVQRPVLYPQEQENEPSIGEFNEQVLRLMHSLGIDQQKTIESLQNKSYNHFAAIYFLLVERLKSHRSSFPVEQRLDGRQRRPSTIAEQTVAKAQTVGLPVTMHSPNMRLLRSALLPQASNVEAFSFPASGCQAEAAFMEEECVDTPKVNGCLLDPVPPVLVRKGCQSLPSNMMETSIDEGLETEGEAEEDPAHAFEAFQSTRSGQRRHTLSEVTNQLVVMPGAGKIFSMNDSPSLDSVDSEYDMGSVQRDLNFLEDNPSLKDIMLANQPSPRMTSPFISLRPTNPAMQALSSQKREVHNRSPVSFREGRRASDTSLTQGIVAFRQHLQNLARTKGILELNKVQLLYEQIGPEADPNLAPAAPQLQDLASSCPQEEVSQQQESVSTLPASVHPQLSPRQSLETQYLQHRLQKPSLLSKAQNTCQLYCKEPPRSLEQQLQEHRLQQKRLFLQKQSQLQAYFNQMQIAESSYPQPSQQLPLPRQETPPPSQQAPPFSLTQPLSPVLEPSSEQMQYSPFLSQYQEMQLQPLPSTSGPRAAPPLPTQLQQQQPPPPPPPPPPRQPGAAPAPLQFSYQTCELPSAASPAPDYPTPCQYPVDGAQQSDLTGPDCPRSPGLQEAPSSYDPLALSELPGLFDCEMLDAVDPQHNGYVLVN
Sequence of SIK3 (Q9Y2K2 whole entry): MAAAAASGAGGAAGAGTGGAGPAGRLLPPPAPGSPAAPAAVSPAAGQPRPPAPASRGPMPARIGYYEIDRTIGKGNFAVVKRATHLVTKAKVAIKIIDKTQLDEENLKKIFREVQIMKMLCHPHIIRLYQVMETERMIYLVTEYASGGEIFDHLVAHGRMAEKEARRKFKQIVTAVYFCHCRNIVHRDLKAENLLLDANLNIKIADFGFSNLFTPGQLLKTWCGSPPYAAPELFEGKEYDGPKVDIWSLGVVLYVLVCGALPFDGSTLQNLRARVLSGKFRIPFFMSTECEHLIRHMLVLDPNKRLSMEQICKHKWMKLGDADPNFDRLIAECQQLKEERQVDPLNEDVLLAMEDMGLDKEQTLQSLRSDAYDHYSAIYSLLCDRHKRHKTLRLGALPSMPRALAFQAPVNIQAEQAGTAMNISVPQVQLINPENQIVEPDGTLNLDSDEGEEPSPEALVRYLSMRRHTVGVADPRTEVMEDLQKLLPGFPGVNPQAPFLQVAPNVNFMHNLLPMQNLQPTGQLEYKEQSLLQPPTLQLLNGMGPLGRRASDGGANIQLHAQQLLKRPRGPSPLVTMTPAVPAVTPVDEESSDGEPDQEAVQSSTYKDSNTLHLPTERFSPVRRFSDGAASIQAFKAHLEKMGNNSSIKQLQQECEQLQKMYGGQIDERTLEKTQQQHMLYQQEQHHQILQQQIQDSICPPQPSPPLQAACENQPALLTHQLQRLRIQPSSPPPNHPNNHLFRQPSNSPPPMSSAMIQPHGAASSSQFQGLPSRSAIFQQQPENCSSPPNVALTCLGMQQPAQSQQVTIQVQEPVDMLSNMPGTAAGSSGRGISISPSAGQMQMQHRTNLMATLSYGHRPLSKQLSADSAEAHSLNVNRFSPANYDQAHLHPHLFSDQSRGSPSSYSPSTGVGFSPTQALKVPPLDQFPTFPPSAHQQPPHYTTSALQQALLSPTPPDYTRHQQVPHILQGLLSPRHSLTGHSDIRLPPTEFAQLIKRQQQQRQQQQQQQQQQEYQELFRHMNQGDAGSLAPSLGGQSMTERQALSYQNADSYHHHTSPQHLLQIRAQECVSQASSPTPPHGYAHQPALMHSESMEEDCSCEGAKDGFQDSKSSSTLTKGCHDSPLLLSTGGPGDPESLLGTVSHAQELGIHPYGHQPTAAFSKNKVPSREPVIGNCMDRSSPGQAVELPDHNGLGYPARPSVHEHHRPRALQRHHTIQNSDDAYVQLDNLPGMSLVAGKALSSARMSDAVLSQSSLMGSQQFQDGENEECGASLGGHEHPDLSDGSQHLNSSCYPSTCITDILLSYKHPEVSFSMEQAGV

As for `COc1cc(C(F)F)nn1-c1nc(-n2cnc3cc(Nc4ccc(C)nn4)ccc32)ccc1C(C)O` (stereo not drawn) [Example 398, 1-[2-[3-(difluoromethyl)-5-methoxy-pyrazol-1-yl]-6-[5-[(6-methylpyridazin-3-yl)amino]benzimidazol-1-yl]-3-pyridyl]ethanol], the concentration for half-maximal inhibition (IC50) (in general, the concentration that gives 50% inhibition) is 271 nM on SIK1, 2 nM at SIK3 and 3.9 nM at SIK2.

In the case of `Cc1ccc(Nc2ccc3c(c2)ncn3-c2ccc(C(C)O)c(-c3cn(CC(F)CF)nc3C)n2)nn1` (stereo not drawn) [Example 399, 1-[2-[1-(2,3-difluoropropyl)-3-methyl-pyrazol-4-yl]-6-[5-[(6-methylpyridazin-3-yl)amino]benzimidazol-1-yl]-3-pyridyl]ethanol], the IC50 at SIK1 was 39 nM; at SIK3 it was 1 nM; at SIK2 it was 0.6 nM.

As for `COc1cc2c(cc1Nc1cnc(C)nc1)ncn2-c1ccc([C@H](C)O)c(-n2nc(OC(F)F)cc2C)n1` [Example 400, (1S)-1-[2-[3-(difluoromethoxy)-5-methyl-pyrazol-1-yl]-6-[6-methoxy-5-[(2-methylpyrimidin-5-yl)amino]benzimidazol-1-yl]-3-pyridyl]ethanol], the figures for the IC50 at SIK1, on SIK3 and at SIK2 were 2 nM, 7.8 nM and 0.6 nM, respectively.

For the molecule `Cc1ccc(Nc2ccc3c(c2)ncn3-c2ccc(C(C)O)c(-c3nc(CC(F)(F)F)nn3C)n2)nn1` (stereo not drawn) [Example 401, 1-[6-[5-[(6-methylpyridazin-3-yl)amino]benzimidazol-1-yl]-2-[2-methyl-5-(2,2,2-trifluoroethyl)-1,2,4-triazol-3-yl]-3-pyridyl]ethanol], the IC50 at SIK1 was 1360 nM; on SIK3 it was 4.2 nM; on SIK2 it was 10.4 nM.

Consider `Cc1ccc(Nc2cc3ncn(-c4ccc([C@H](C)O)c(-n5nc(C#N)cc5C)n4)c3cc2OC(F)F)nn1` [Example 402, 1-[6-[6-(difluoromethoxy)-5-[(6-methylpyridazin-3-yl)amino]benzimidazol-1-yl]-3-[(1S)-1-hydroxyethyl]-2-pyridyl]-5-methyl-pyrazole-3-carbonitrile], for which the values for the half-inhibitory concentration (IC50) at SIK1, at SIK3 and on SIK2 were 5 nM, 0.3 nM and 0.2 nM, respectively.

As for `Cc1ccc(Nc2cc3ncn(-c4ccc([C@@H](C)O)c(-n5nc(C#N)cc5C)n4)c3cc2OC(F)F)nn1` [Example 403, 1-[6-[6-(difluoromethoxy)-5-[(6-methylpyridazin-3-yl)amino]benzimidazol-1-yl]-3-[(1R)-1-hydroxyethyl]-2-pyridyl]-5-methyl-pyrazole-3-carbonitrile], the IC50 was found to be 458 nM on SIK1, 32.2 nM at SIK3 and 24.7 nM on SIK2.

Take `Cc1ccc(Nc2ccc3c(c2)ncn3-c2ccc(C(C)O)c(-n3nc(OC(F)F)cc3C(F)F)n2)nn1` (stereo not drawn) [Example 404, 1-[2-[3-(difluoromethoxy)-5-(difluoromethyl)pyrazol-1-yl]-6-[5-[(6-methylpyridazin-3-yl)amino]benzimidazol-1-yl]-3-pyridyl]ethanol]: the half-inhibitory concentration (IC50) on SIK1 is 41 nM; at SIK3 it was 0.5 nM; on SIK2, 0.5 nM.

As for `Cc1ccc(Nc2ccc3ncn(-c4ccc(C(C)O)c(-n5nc(OC(F)F)cc5C(F)F)n4)c3c2)nn1` (stereo not drawn) [Example 405], the IC50 was 39 nM on SIK1, 150 nM on SIK3 and 19.8 nM at SIK2.

Turning to `Cc1ccc(Nc2cc3c(cc2CC2COC2)ncn3-c2ccc(C(C)O)c(-n3nc(OC(F)F)cc3C)n2)nn1` (stereo not drawn) [Example 406, 1-[2-[3-(difluoromethoxy)-5-methyl-pyrazol-1-yl]-6-[6-[(6-methylpyridazin-3-yl)amino]-5-(oxetan-3-ylmethyl)benzimidazol-1-yl]-3-pyridyl]ethanol], the IC50 was determined as 47 nM on SIK1, 144 nM at SIK3 and 13.4 nM at SIK2.

In the case of `Cc1ccc(Nc2cc3ncn(-c4ccc(C(C)O)c(-n5nc(OC(F)F)cc5C)n4)c3cc2CC2COC2)nn1` (stereo not drawn) [Example 407, 1-[2-[3-(difluoromethoxy)-5-methyl-pyrazol-1-yl]-6-[5-[(6-methylpyridazin-3-yl)amino]-6-(oxetan-3-ylmethyl)benzimidazol-1-yl]-3-pyridyl]ethanol], the half-maximal inhibitory concentration (IC50) on SIK1 was 321 nM; on SIK3 it was 22.9 nM; on SIK2, 12.9 nM.

In the case of “N-[1-[6-[3-(difluoromethyl)-5-methyl-pyrazol-1-yl]-5-(1-hydroxyethyl)-2-pyridyl]-6-fluoro-benzimidazol-5-yl] cyclopropanecarboxamide [Example 361]”, the values for the IC50 at SIK1, on SIK3 and at SIK2 were 321 nM, 51.1 nM and 63.9 nM, respectively.
